# Legend:
# HLA-DR, DP, DQ = assay: MHC class II promiscuity of CD4+ Th1 responses (HLA-DR, DP, DQ typing of donors); assay type: cell-based, human; conditions: DQ subtypes
# [1] = test system: HER3 ECD-sensitized CD4+ Th1 cells; assay: Sequential screening of HER3 ECD peptide library: HER3 ECD-sensitized CD4+ Th1 restimulated against peptide-pulsed iDCs, IFN-γ ELISA; assay type: cell-based, human; conditions: for reactivity of CD4+ T cells across donors (IFN-γ secretion): 5-6 subjects with known anti-HER3 ECD reactivity
# [2] = Donor # 15107-26, previously sensitized to HER3 ECD
# [3] = Donor # 15107-31, previously sensitized to HER3 ECD
# [4] = Donor # 15107-38, previously sensitized to HER3 ECD
# [5] = Donor # 26113-03, previously sensitized to HER3 ECD
# [6] = Donor # 15107-24, previously sensitized to HER3 ECD
Sequence,"MHC class II promiscuity (HLA-DR, DP, DQ)",reactivity of CD4+ T cells across donors (IFN-γ secretion) [1],reactivity of CD4+ T cells across donors (IFN-γ secretion) ([1]; listed as HER3(451-465)),"immunogenic CD4+ HER3 ECD peptide identified [1, 2]","immunogenic CD4+ HER3 ECD peptide identified [1, 3]","immunogenic CD4+ HER3 ECD peptide identified [1, 4]","immunogenic CD4+ HER3 ECD peptide identified [1, 5]",reactivity of CD4+ T cells across donors (IFN-γ secretion) ([1]; listed as HER3(56-70)),"immunogenic CD4+ HER3 ECD peptide identified [1, 6]",reactivity of CD4+ T cells across donors (IFN-γ secretion) ([1]; listed as HER3(401-415)),reactivity of CD4+ T cells across donors (IFN-γ secretion) ([1]; listed as HER3(416-430))
"AGRIYISANRQLCYH [HER3451-465, HER3 ECD MHC class II immunogenic peptide, positions 451-465]","promiscuous across HLA-DR, DP, and DQ subtypes",react across most donors,reproducibly identified,✓,✓,✓,✓,,,,
"CEVVMGNLEIVLTGH [HER356-70, HER3 ECD MHC class II immunogenic peptide, positions 56-70]","promiscuous across HLA-DR, DP, and DQ subtypes",react across most donors,,✓,,✓,✓,reproducibly identified,✓,,
"SWPPHMHNFSVFSNL [HER3401-415, HER3 ECD MHC class II immunogenic peptide, positions 401-415]","promiscuous across HLA-DR, DP, and DQ subtypes",react across most donors,,✓,,,✓,,✓,reproducibly identified,
"TTIGGRSLYNRGFSL [HER3416-430, HER3 ECD MHC class II immunogenic peptide, positions 416-430]","promiscuous across HLA-DR, DP, and DQ subtypes",react across most donors,,✓,✓,,✓,,✓,,reproducibly identified

# Source: patent US10829538B2, “Identification of immunogenic MHC class II peptides for immune-based therapy” (THE TRUSTEES OF THE UNIVERSITY OF PENNSYLVANIA, priority 2015, dated 2020)
